Measurements as given in patent US5852028A, “Pyrimidine carboxylates and related compounds and methods for treating inflammatory conditions” (Signal Pharmaceuticals, Inc., priority 1995, dated 1998).

tested on: NFκB/AP-1; experiment: NFκB and AP-1 luciferase reporter gene assays in PMA/PHA-stimulated Jurkat T-cells; format: cell-based; conditions: Homo sapiens, stable Jurkat T-cells, PMA/PHA stimulation, 5 h
Text: Stable human Jurkat T-cells containing an NFκB binding site (from the MHC promoter) fused to a minimal SV-40 promoter driving luciferase expression were used in this experiment. Cells were split to 3×10^5 cells/mL every 2-3 days (cell concentration should not exceed 1×10^6 cells/mL to keep the cells proliferating in log phase). These cells were counted, resuspended in fresh medium containing 10% Serum-Plus at a density of 1×10^6 cells/mL and plated in 96 well round bottom plates (200 μ.LAMBDA. per well) 18 hours prior to starting the experiment.
Compounds of this invention, dissolved in dimethyl sulfoxide (3.3, 0.33 and 0.03 μg/mL), were then added to the 96 well plates containing the cells and the plates were incubated for 0.5 h at 37° C. Then 50 ng/mL of phorbol 12-myristate-13-acetate (PMA) and 1 μg/mL of phytohemagglutinin (PHA) were added to each well and the cells were incubated for an additional 5 h at 37° C. The plates were centrifuged at 2200 RPM for 3 minutes at room temperature and then the medium was removed. To each well was added 60 μL of cell lysis buffer and the plates were left at room temperature for 0.25 h. Then 40 μL of each cell extract was transferred to a black 96 well plate and 50 μL of luciferase substrate buffer was added. Luminescence was immediately measured using a Packard TopCount.
For AP-1, the assay was run as described above for NFκB except stable Jurkat T-cells were used that contained a the -73 collagenase promoter driving luciferase expression. In addition, the concentration of PMA used was 5 ng/mL.

Compared with CCOC(=O)c1cnc(NN2C(=O)C=C(C)C2=O)nc1C(F)(F)F [Example 20, Ethyl 2-[N-(1'-aminocitraconamide)]-4-trifluoromethylpyrimidine-5-carboxylate], CCOC(=O)c1cnc(NN2C(=O)C=C(C)C2=O)nc1C(F)(F)C(F)(F)F [Example 48, Ethyl 2-[N-(1'-aminocitraconamido)]-4-pentafluoroethylpyrimidine-5-carboxylate] is 7.8-fold lower in IC50: 0.7 µM for the first, 0.09 µM for the second. The second is the more potent here.

First: CCOC(=O)c1cnc(C(F)(F)F)nc1NN1C(=O)C=C(C)C1=O [Example 21, Ethyl 4-[N-(1'-aminocitraconamide)]-2-trifluoromethylpyrimidine-5-carboxylate]
Second: CCOC(=O)c1cnc(C(F)(F)F)nc1NN1C(=O)C(C)=C(C)C1=O [Example 44, Ethyl 4-[N-(1'-amino-3',4'-dimethylmaleimido)]-2-trifluoromethylpyrimidine-5-carboxylate]
The IC50 of the first is lower: 0.5 µM for the first, 10 to 30 µM for the second.

Compared with CC(=O)c1cnc(NN2C(=O)C=C(C)C2=O)nc1C(F)(F)F [Example 23, 5-acetyl-2-[N-(1'-aminocitraconamide)]-4-trifluoromethylpyrimidine], CCOC(=O)c1cnc(NN2C(=O)C=C(C)C2=O)nc1C [Example 46, Ethyl 2-[N-(1'-aminocitraconamido)]-4-methylpyrimidine-5-carboxylate] is lower in IC50: 5 to 10 µM for the first, 4 µM for the second.

CCOC(=O)c1cnc(NN2C(=O)C=C(C)C2=O)nc1CC [Example 36, Ethyl 2-[N-(1'-aminocitraconamide)]-4-ethylpyrimidine-5-carboxylate] and CCCc1nc(NN2C(=O)C=C(C)C2=O)ncc1C(=O)OCC [Example 37, Ethyl 2-[N-(1'-aminocitraconamide)]-4-propylpyrimidine-5-carboxylate] are the same in IC50: 0.15 µM for the first, 0.15 µM for the second.

First: CCOC(=O)c1cnc(NN2C(=O)C=C(C)C2=O)nc1-c1cccs1 [Example 38, Ethyl 2-[N-(1'-aminocitraconamide)]-4-(2"-thiophenyl)pyrimidine-5-carboxylate]
Second: CCOC(=O)c1cnc(NN2C(=O)C=C(C)C2=O)nc1-c1ccccc1 [Example 50, Ethyl 2-[N-(1'-aminocitraconamido)]-4-phenylpyrimidine-5-carboxylate]
The IC50 of the first is 25-fold lower: 0.04 µM for the first, 1 µM for the second.

First: CCOC(=O)c1cnc(NN2C(=O)C=C(c3ccccc3)C2=O)nc1C(F)(F)F [Example 40, Ethyl 2-[N-(1'-amino-3'-phenylmaleimide)]-4-trifluoromethylpyrimidine-5-carboxylate]
Second: CCOC(=O)c1cnc(NN2C(=O)C=C(C)C2=O)nc1Cc1ccccc1 [Example 52, Ethyl 2-[N-(1'-aminocitraconamido)]-4-benzylpyrimidine-5-carboxylate]
The IC50 of the first is 1.5-fold higher: 3 µM for the first, 2 µM for the second. The second is the more potent here.

Compared with CCOC(=O)c1cnc(NN2C(=O)C(C)=C(C)C2=O)nc1C(F)(F)F [Example 41, Ethyl 2-[N-(1'-amino-3',4'-dimethylmaleimide)]-4-trifluoromethylpyrimidine-5-carboxylate], CCOC(=O)c1cnc(N(C)N2C(=O)C=C(C)C2=O)nc1C(F)(F)F [Example 42, Ethyl 2-[N-(1'-aminocitraconamide)-N-methyl]-4-trifluoromethylpyrimidine-5-carboxylate] is 17-fold lower in IC50: 5 µM for the first, 0.3 µM for the second.

For CCOC(=O)c1cnc(NN2C(=O)C=C(C)C2=O)nc1C(=O)OCC [Example 64, Diethyl 2-[N-(1'-aminocitraconamido)]-pyrimidine-4,5-dicarboxylate], the IC50 was 1 µM.

tested on: C3H mice; experiment: not given; conditions: Morris et al., 1990; cited from earlier work

In the case of O=P1(N(CCCl)CCCl)NCCCO1 (centres unmarked) [cyclophosphamide], the “activity in graft vs. host model (PLN assay)” value is listed as “active”.

tested on: mice; experiment: not given; conditions: Morris et al., 1990; cited from earlier work

In the case of O=P1(N(CCCl)CCCl)NCCCO1 (centres unmarked) [cyclophosphamide], the “activity in contact sensitivity model (delayed-type hypersensitivity to oxazolone)” value is given as “active”.
